Experimental data as given in US4778789A, “Piperazinecarboxamides having a phenoxyalkyl or thiophenoxyalkyl side chain” (priority 1985, dated 1988).
Where a name gives a salt, the structure may show the parent alone.

System: isolation induced aggressive behaviour (male NMRI mice)
Assay: Isolation induced aggressive behaviour test
Assay type: in vivo
Conditions: Mus musculus, sc, 0.5 hour after drug administration, read-out: ED50 (dose inhibiting aggressive behaviour among 50 percent of the pairs)
Text: This type of aggression is interesting because it is known that this kind of emotional behaviour might be located in limbic structures in the brain (MacLean, P. D., Psychosom. Med. 11, 338 (1949)).
Every week male NMRI mice, weighing 20-22 g, were isolated in Makrolon cages for three weeks with diet and water ad libitum. A piece of cardboard was placed between the cages to prevent visual contact.
To test aggressiveness the mice were paired in a neutral area, a beaker (14 cm high and diameter 14 cm). A pair is considered aggressive if both the animals show clear signs of fighting within 5 minutes. This fighting is characterized by biting and vocalization. A soon as fighting is seen, the mice are separated and brought to their home cage (every second mouse is marked). […] Animals showing no aggression are discarded.
The test substance is administered s.c. (0.2-0.4 ml/20 g). The mice are paired 0.5 hour after the injection for trials of 5 minutes' duration.
The ED50 -value (mg/kg) reported is the dose inhibiting aggressive behaviour among 50 percent of the pairs 0.5 hour after drug administration.

SMILES	ED50
CSc1ccc2c(c1)N(CCC1CCCCN1C)c1ccccc1S2 (centres unmarked) [Thioridazine]	5 mg/kg
CCNC(=O)N1CCN(CCCOc2ccc(F)cc2)CC1 [1:3, 4-/3-(p-fluorophenoxy)proyl/-N-ethyl-1-piperazinecarboxamide hydrochloride]	5 mg/kg
